Laboratory results as given in patent US20010006646A1, “METHOD AND SYSTEM FOR TREATMENT OF WOUNDS” (priority 1996, published 2001).

Legend:
[1] = test system: 16 month old chronic interstitial, encapsulated, alpha-hemolytic, streptococcal channelling ulceration located on their right ankle; experiment: Example 1: old chronic ankle wound, treatment of a human patient; format: in vivo; conditions: for outcome of conventional per orum treatments / outcome of conventional intravenous treatments: two week cycle each, not given in the same period
Description: The concepts of the invention will now be illustrated by the following Examples, which are intended to be purely exemplary and not limiting. The chemical debriding complex applied to the wound treated in example 1 was an aerosolized liquid composition comprising:
(§1) The formulation of the present invention used in the following examples was prepared in the form of a gel as follows:
(§2) (4) 1 ml of mixture (a), 1 ml of mixture (b) and 1 ml of mixture (c) were combined using a three step homogenization process to form the gel formulation of the present invention used in the following examples, namely
(§3) The dose of formulation used in treating the wounds in the following examples was based on the wound volume. The wound volume was measured in cubic centimeters using well known methods.
A human patient in normal health, suffered from a 16 month old chronic interstitial, encapsulated, alpha-hemolytic, streptococcal channelling ulceration located on their right ankle and tunnelled to the periosteum of the bone in their right ankle. […] Conventional intravenous treatments, including a two week cycle of penicillin and a two week cycle of amoxicillin, were unsuccessful. Note that the penicillin and the amoxicillin were not administered during the same two week period. Conventional per orum treatments, including a two week cycle of Keflex® and a two week cycle of Cipro®, were unsuccessful. Note that the Keflex and Cipro were not administered during the same two week period, nor were they administered during the same two week period as either of the penicillin or the amoxicillin.
(§4) The wound was subsequently treated using the gel formulation prepared as described above. Specifically, the given formulation was administered to the patient's wound as part of the following treatment procedure. Particularly, (i) the wound was prepared for administration of the given formulation by liberal application of a chemical debriding complex described above; (ii) after allowing the chemical debriding complex to bubble off, about three (3) minutes, a medicated pad comprising a sterile pad containing about three (3) ml of the gel formulation for each cubic centimeter of wound volume was placed over the wound and secured to the patient; (iii) the medicated pad was removed about twenty-four (24) hours later; (iv) steps (i) through (iii) were repeated. After seven (7) days of treatment, the wound was completely closed.

[2] = test system: 18 month old chronic bed sore on the middle of their back; experiment: Example 2: old chronic back wound (bed sore), treatment of a human patient; format: in vivo; conditions: dressings in conjunction with two serial courses of antibiotics (per orum Cipro 500 mg B.I.D., then 500 mg intravenous Keflex every eight hours)
Description: The chemical debriding complex applied to each of the wounds treated in examples 2 through 4 was an aerosolized liquid composition comprising:
as §1, §2, §3, §4
A human patient in very poor health suffering from CHF, diabetes, peripheral vascular disease, 10% body surface non-candidyal yeast infection, nutritional deficit, and “steroid” skin secondary to prednisone administration for auto-immune arthritis and from an 18 month old chronic bed sore on the middle of their back. Conventional treatments, including granulex, zinc oxide, duoderm and sorbasan dressings in conjunction with two serial courses of oral antibiotics, per orum Cipro 500 mg B.I.D. followed by 500 mg intravenous Keflex every eight hours, were unsuccessful at stimulating the healing of the wound. […]

[3] = test system: six (6) month old chronic pressure-friction wound on both haunches; experiment: Example 3: canine pressure wound; format: in vivo, Borzoi; conditions: duoderm post shaving; before treatment with the formulation

Compound | outcome of conventional per orum treatments [1] | outcome of conventional treatments at stimulating the healing of the wound [2] | outcome of conventional intravenous treatments [1] | outcome of conventional topical treatments ([1]; topical, before treatment with the gel formulation) | outcome of conventional treatments [3]
O=C(O)c1cn(C2CC2)c2cc(N3CCNCC3)c(F)cc2c1=O [Cipro] | unsuccessful | unsuccessful |  |  | 
CC1=C(C(=O)O)N2C(=O)[C@@H](NC(=O)[C@H](N)c3ccccc3)[C@H]2SC1 [Keflex] | unsuccessful | unsuccessful |  |  | 
CC1(C)S[C@@H]2[C@H](NC(=O)[C@H](N)c3ccc(O)cc3)C(=O)N2[C@H]1C(=O)O [amoxicillin] |  |  | unsuccessful |  | 
[O]=[Zn] [zinc oxide] |  | unsuccessful |  | repeatedly unsuccessful | repeatedly unsuccessful
penicillin |  |  | unsuccessful |  | 
